{"source": "ChEMBL document CHEMBL5465560", "about": "“Selectivity Literature for EUbOPEN Chemogenomic Library” (2024)", "key": {"[1]": {"target": "T1, Mitogen-activated protein kinase 15 (Homo sapiens) (UniProt Q8TD08)", "T1 sequence (whole entry)": "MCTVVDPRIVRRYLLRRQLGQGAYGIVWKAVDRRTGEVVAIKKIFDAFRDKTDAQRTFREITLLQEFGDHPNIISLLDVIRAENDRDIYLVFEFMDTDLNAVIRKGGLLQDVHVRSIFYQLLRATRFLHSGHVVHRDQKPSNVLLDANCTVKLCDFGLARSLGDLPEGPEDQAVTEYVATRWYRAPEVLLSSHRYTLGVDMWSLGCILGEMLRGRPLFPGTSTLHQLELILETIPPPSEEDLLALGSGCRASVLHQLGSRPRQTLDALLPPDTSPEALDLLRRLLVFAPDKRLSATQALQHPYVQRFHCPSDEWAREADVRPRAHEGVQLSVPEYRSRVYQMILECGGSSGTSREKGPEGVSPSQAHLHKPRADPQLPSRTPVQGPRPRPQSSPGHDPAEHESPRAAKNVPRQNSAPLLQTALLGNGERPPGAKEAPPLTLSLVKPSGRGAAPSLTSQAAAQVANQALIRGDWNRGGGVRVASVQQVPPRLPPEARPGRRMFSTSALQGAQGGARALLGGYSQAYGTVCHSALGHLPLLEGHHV", "experiment": "Selectivity interaction (Kinase panel (literature)) EUB0001199aCl MAPK15", "settings": "at 1 µM"}, "[2]": {"target": "T2, Mitogen-activated protein kinase 1 (Homo sapiens, UniProt P28482)", "T2 sequence (P28482 whole entry)": "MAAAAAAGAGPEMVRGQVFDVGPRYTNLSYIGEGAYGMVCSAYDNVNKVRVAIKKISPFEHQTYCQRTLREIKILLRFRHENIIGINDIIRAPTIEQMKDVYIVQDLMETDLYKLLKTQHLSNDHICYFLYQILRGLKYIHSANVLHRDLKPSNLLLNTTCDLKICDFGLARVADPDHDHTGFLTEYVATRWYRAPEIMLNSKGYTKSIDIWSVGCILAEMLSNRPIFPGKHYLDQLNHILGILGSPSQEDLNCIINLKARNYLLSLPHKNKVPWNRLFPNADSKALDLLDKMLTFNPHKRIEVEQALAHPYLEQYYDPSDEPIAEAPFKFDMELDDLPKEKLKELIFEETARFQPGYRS", "experiment": "Selectivity interaction (KinomeScan (DiscoverX)) EUB0000666a MAPK1", "settings": "at 10 µM"}, "[3]": {"target": "Tyrosine-protein kinase Lck (Homo sapiens, UniProt P06239)", "settings": "at 3 µM"}, "[4]": {"target": "Serine/threonine-protein kinase 38 (Homo sapiens) (UniProt Q15208)", "sequence (Q15208 2-465 limits assumed)": "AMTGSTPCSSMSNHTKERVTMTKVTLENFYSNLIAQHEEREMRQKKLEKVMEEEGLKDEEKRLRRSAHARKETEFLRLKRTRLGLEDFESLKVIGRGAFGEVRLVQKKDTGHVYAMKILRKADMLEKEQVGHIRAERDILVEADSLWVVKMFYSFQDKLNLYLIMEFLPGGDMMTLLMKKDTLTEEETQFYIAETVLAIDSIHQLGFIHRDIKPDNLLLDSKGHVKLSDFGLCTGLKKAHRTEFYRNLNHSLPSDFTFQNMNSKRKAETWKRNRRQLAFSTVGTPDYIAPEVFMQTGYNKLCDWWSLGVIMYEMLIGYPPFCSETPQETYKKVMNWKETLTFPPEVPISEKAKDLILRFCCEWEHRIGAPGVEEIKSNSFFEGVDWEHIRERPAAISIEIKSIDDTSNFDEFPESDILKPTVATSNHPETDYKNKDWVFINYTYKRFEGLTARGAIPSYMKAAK", "experiment": "Selectivity interaction (ActivX KiNativ screen (kinase selectivity in THP-1 cell lysates)) EUB0000639a STK38", "assay_type": "subcellular", "settings": "lysate, at 5 µM"}, "[5]": {"target": "Tyrosine-protein kinase HCK (Homo sapiens) (UniProt P08631)", "sequence (P08631 2-526 limits assumed)": "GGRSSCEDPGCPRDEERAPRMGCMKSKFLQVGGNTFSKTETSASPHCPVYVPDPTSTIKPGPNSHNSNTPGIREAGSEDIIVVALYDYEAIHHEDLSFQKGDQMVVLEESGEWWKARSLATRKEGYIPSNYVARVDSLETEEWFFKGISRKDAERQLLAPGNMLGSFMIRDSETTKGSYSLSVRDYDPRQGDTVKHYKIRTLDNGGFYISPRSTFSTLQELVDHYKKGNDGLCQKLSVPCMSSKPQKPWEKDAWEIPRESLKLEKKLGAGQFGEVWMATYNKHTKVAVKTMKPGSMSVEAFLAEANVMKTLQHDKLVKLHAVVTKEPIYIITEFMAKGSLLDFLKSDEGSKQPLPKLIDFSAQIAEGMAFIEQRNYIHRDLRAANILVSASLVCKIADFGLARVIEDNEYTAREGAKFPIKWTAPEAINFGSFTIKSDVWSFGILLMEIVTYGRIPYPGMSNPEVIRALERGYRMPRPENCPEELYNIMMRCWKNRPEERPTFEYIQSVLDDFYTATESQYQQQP", "experiment": "Selectivity interaction (ActivX KiNativ screen (kinase selectivity in THP-1 cell lysates)) EUB0000639a HCK", "assay_type": "subcellular", "settings": "lysate, at 0.01 µM"}, "[6]": {"target": "Mast/stem cell growth factor receptor Kit (Homo sapiens, UniProt P10721)", "sequence (P10721 whole entry)": "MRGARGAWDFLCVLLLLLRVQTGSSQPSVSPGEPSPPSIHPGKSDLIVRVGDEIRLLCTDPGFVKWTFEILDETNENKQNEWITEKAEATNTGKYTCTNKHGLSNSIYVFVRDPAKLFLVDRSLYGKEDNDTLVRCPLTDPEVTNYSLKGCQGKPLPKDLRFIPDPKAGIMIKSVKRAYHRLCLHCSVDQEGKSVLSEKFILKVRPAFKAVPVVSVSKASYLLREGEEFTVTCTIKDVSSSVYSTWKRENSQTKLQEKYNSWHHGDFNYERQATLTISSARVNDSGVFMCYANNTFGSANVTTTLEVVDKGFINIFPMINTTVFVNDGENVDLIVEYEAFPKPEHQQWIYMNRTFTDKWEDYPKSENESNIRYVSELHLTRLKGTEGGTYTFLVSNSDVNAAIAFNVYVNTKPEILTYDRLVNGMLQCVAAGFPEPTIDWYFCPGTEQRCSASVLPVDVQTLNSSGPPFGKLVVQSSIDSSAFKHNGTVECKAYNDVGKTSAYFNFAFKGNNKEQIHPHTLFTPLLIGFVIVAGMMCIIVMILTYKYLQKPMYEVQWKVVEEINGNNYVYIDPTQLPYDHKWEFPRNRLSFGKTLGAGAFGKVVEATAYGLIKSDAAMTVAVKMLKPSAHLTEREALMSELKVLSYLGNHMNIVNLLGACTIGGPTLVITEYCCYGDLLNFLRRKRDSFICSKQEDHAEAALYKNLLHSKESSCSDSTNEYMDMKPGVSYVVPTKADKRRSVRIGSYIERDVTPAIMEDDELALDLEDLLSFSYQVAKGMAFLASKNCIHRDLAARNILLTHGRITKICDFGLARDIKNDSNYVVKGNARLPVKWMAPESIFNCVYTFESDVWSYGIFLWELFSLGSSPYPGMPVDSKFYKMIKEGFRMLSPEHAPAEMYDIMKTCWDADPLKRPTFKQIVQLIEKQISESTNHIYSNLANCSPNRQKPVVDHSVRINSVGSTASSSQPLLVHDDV", "experiment": "Selectivity interaction (Kinase panel (Invitrogen)) EUB0000639a KIT", "settings": "at 200 nM"}, "[7]": {"target": "Transient receptor potential cation channel subfamily M member 6 (Homo sapiens) (UniProt Q9BX84)", "experiment": "Selectivity interaction (KinomeScan (DiscoverX)) EUB0000092b TRPM6", "settings": "at 10 µM"}, "[8]": {"target": "Receptor tyrosine-protein kinase erbB-2 (Homo sapiens, UniProt P04626)", "experiment": "Selectivity interaction (KinomeScan (DiscoverX)) EUB0000092b ERBB2", "settings": "at 10 µM"}, "[9]": {"target": "T2, Mitogen-activated protein kinase 1", "experiment": "Selectivity interaction (KinomeScan (DiscoverX)) EUB0000045b MAPK1"}, "[10]": {"target": "Myosin light chain kinase, smooth muscle (Homo sapiens, UniProt Q15746)", "sequence (Q15746 whole entry)": "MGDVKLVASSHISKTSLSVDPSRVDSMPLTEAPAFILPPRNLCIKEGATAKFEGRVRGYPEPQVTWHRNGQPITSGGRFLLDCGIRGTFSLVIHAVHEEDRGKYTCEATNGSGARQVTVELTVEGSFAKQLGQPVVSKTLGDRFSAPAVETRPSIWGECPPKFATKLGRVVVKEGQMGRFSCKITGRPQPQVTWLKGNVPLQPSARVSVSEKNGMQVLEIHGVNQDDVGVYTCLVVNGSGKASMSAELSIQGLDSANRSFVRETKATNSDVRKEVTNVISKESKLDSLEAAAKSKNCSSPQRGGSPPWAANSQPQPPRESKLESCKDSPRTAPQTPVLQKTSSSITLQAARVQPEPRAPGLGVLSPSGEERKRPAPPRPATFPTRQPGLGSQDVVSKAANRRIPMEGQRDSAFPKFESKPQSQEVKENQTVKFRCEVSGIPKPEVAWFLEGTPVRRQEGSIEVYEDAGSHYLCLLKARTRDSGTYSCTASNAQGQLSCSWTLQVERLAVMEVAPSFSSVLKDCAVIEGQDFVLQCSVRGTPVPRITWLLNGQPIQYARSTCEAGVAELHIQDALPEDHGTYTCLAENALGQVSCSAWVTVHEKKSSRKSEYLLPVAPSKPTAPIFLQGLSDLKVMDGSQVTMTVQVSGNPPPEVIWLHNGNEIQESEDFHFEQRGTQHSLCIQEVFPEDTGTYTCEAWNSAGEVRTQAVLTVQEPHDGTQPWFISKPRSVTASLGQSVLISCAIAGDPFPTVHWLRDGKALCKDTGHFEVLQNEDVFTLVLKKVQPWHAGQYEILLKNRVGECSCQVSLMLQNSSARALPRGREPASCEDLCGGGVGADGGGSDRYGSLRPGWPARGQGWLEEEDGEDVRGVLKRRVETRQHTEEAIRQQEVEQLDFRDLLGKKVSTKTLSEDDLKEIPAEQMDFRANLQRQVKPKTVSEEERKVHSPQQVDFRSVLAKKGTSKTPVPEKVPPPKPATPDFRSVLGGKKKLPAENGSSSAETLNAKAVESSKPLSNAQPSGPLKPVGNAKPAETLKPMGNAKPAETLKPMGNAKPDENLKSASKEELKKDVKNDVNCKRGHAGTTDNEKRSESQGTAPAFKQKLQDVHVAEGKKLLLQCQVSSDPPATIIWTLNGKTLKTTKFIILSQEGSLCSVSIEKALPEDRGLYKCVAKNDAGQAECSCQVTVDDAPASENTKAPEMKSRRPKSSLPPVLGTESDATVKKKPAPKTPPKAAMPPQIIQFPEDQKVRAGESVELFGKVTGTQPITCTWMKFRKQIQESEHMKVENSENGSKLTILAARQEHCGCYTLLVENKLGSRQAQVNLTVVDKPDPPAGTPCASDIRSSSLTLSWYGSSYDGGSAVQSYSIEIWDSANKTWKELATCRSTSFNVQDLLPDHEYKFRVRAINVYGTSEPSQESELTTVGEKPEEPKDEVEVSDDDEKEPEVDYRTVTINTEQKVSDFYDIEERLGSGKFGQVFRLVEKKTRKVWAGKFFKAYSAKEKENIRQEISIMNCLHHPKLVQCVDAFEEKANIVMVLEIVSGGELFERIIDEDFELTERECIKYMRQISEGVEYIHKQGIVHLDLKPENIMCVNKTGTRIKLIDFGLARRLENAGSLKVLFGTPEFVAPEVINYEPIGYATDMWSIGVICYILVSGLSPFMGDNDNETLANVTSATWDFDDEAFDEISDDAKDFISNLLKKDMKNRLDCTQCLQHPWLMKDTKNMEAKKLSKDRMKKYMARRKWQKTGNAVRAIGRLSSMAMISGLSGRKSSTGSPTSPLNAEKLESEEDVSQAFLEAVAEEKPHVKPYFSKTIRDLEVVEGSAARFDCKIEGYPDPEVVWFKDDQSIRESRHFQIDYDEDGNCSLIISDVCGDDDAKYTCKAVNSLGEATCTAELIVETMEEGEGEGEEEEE", "experiment": "Selectivity interaction (KinomeScan (DiscoverX)) EUB0000045b MYLK"}, "[11]": {"target": "T3, Mixed lineage kinase domain-like protein (Homo sapiens) (UniProt Q8NB16)", "T3 sequence (whole entry)": "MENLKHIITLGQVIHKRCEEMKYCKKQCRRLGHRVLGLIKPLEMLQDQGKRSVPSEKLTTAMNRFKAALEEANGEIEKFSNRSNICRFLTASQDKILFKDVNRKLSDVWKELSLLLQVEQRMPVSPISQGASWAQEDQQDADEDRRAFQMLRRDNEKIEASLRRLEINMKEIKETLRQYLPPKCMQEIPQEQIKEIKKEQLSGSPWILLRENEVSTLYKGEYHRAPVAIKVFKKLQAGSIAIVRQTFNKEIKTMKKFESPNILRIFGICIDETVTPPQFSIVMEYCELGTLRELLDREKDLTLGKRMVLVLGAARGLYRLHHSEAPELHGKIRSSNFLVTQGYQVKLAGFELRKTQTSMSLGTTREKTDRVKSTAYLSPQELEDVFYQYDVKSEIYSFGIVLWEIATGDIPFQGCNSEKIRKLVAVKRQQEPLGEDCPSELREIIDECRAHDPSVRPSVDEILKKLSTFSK", "experiment": "Selectivity interaction (ActivX KiNativ screen (ex vivo kinase selectivity in human PBMCs)) EUB0001619a MLKL", "assay_type": "cell-based", "settings": "PBMC, at 1 µM"}, "[12]": {"target": "T4, Ephrin type-B receptor 2 (Homo sapiens) (UniProt P29323)", "T4 sequence (whole entry)": "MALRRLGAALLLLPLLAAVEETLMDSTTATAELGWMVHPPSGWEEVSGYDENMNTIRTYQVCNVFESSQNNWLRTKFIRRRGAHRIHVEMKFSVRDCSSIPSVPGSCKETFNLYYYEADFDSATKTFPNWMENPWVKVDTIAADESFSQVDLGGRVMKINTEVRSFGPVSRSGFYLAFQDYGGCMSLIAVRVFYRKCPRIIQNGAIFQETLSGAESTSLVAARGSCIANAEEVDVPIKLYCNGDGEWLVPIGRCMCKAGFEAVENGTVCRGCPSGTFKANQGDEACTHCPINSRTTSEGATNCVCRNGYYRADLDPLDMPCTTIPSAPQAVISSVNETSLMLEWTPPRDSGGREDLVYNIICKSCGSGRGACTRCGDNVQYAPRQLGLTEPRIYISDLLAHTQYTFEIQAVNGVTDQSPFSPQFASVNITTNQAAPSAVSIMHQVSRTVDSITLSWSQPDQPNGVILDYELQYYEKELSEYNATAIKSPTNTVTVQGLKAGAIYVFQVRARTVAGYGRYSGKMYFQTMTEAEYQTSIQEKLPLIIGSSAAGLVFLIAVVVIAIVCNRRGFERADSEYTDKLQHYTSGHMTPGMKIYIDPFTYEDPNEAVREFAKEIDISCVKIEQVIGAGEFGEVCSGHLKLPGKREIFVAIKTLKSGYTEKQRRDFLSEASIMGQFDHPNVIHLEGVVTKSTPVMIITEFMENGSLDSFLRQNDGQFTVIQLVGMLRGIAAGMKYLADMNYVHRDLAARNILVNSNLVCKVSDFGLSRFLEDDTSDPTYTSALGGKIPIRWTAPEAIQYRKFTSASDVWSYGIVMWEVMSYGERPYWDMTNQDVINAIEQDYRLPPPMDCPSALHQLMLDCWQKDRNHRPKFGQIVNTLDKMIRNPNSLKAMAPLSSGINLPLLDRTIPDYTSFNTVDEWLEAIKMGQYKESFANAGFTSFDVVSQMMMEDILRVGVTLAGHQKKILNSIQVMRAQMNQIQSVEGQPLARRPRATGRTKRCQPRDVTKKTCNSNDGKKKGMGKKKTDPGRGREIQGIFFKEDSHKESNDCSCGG", "experiment": "Selectivity interaction (Upstate Kinase Profiler service (Millipore)) EUB0000056c EPHB2", "settings": "at 1 µM"}, "[13]": {"target": "Cyclin-dependent kinase 5/CDK5 activator 1 (Homo sapiens) (UniProt Q00535+Q15078)", "sequence (Q00535 whole entry)": "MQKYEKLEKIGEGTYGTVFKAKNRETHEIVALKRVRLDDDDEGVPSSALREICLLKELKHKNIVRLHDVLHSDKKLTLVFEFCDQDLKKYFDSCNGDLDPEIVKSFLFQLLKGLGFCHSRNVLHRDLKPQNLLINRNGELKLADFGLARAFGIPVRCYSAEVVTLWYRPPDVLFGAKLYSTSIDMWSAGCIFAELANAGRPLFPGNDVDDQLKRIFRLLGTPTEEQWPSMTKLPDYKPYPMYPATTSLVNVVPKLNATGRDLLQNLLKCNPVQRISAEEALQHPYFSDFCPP", "sequence (Q15078 99-307 partner limits assumed)": "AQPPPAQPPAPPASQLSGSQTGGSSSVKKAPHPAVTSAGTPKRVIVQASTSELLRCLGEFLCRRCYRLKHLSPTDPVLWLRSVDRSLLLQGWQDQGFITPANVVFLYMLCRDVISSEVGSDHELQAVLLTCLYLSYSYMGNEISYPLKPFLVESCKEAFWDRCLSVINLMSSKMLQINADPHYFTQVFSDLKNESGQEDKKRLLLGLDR", "experiment": "Selectivity interaction (ProQinase) EUB0000171b CDK5", "assay_type": "protein-complex assay"}}, "data": [{"compound": "CN1Cc2nccc(-c3cn(C)nc3-c3ccc(F)cc3)c2C1=O", "values": [{"measurement": "% of inhibition", "setting": "[1]", "value": 10, "unit": "%"}]}, {"compound": "O=C(NOC[C@H](O)CO)c1ccc(F)c(F)c1Nc1ccc(I)cc1F", "values": [{"measurement": "% of control", "setting": "[2]", "value": 100, "unit": "%"}]}, {"compound": "CCc1cc(Nc2nccc(-c3c(-c4ccc(OC)c(C(=O)Nc5c(F)cccc5F)c4)nc4ccccn34)n2)c(OC)cc1N1CCC(N2CCN(S(C)(=O)=O)CC2)CC1", "values": [{"measurement": "% of inhibition", "setting": "[3]", "value": 47, "unit": "%"}]}, {"compound": "CC[C@@H]1[C@H](F)C(=O)N[C@@H]1COc1nccc2cc(C(N)=O)c(OC)cc12", "note": "[ZIMLOVISERTIB]", "values": [{"measurement": "% of inhibition", "setting": "[4]", "value": 87.9, "unit": "%"}, {"measurement": "% of inhibition", "setting": "[5]", "value": -14.7, "unit": "%"}, {"measurement": "% of inhibition", "setting": "[6]", "value": 1.04, "unit": "%"}]}, {"compound": "CCC(=O)N1CCN(c2ccc(-n3c(=O)ccc4cnc5ccc(-c6cnc7ccccc7c6)cc5c43)cc2C(F)(F)F)CC1", "values": [{"measurement": "% of control", "setting": "[7]", "value": 100, "unit": "%"}, {"measurement": "% of control", "setting": "[8]", "value": 91, "unit": "%"}]}, {"compound": "C=CC(=O)Nc1cc(-n2c(=O)ccc3cnc4ccc(-c5ccc(NS(C)(=O)=O)cc5)cc4c32)ccc1C", "values": [{"measurement": "% of control", "setting": "[9]; at 1 µM", "value": 94, "unit": "%"}, {"measurement": "% of control", "setting": "[9]; at 10 µM", "value": 100, "unit": "%"}, {"measurement": "% of control", "setting": "[10]; at 1 µM", "value": 90, "unit": "%"}, {"measurement": "% of control", "setting": "[10]; at 10 µM", "value": 100, "unit": "%"}]}, {"compound": "N#Cc1cccc(-c2c[nH]c3ncnc(N4CCOCC4)c23)c1", "values": [{"measurement": "% of inhibition", "setting": "[11]", "value": 15, "unit": "%"}]}, {"compound": "Cc1ccc(-c2ccc3c(ccc4sc5c(c43)NC[C@@H](C)NC5=O)n2)cn1", "values": [{"measurement": "% of inhibition", "setting": "[12]", "value": -14, "unit": "%"}]}, {"compound": "C=CC(=O)Nc1cccc(C(=O)Nc2ccc(Nc3cc(-c4[nH]c(SC)nc4C)ccn3)cc2)c1", "values": [{"measurement": "% of control", "setting": "[13]; at 1 µM", "value": 77, "unit": "%"}, {"measurement": "% of control", "setting": "[13]; at 5 µM", "value": 54, "unit": "%"}]}]}
